Data: patent US12194033B2, “Glycine receptor modulators and methods of use” (University of Pittsburgh—Of the Commonwealth System of …, priority 2017, dated 2025)
Residue numbers refer to the chain shown, from its start.

Key:
hERG = hERG (Homo sapiens, UniProt Q12809); assay: Radioligand binding assay, off-target profiling; conditions: 10 µM MJPY1, mean, n = 4
human α3GlyR = molecular target: T1, human α3GlyR (Homo sapiens, UniProt O75311); assay: In vitro functional electrophysiology in Xenopus laevis oocytes; assay type: cell-based
T1 construct: expressed in transfected cells; host or cells: Xenopus laevis oocytes
T1 sequence (O75311 34-464): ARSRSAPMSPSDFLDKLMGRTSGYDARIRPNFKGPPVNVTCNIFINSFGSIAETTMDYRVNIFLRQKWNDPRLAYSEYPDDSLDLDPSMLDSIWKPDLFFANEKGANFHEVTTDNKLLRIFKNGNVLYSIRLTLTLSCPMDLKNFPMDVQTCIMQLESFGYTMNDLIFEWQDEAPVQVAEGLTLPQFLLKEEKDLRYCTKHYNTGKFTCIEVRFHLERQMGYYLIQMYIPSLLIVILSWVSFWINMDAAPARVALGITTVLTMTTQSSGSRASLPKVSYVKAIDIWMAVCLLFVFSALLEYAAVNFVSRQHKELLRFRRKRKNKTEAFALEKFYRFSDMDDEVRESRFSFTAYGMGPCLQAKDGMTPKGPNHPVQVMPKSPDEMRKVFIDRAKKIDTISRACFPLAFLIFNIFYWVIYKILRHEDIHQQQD
Experimental: I/Io is calculated as the ratio of the current measured in the presence (I) and absence (Io) of compound 1 or THC at the indicated concentrations. Error bars designate the standard error of the mean (n≥4).
FIGS. 2A and 2B are bar graphs showing the effect of compound 1 on modulation of human glycine receptor subtypes (α1GlyR, α3GlyR, α1βGlyR, and α3βGlyR) expressed in Xenopus laevis oocytes activated by 2% (FIG. 2A) and 20% (FIG. 2B) maximal effective concentration of glycine. I/Io was calculated as the ratio of the current measured in the presence (I) and absence (Io) of 10 μM compound 1. Error bars designate the standard error of the mean (n≥4).
The compounds disclosed in Table 1 were assessed for in vitro modulation of human GlyRs. […] The assessed compounds were compounds 1 (3A), 2 (3B), 3 (3C), 4 (3D), 5 (3E), 6 (3F), 7 (3G), and 8 (3H). I/Io was calculated as the ratio of the current measured in the presence (I) and absence (Io) of 10 μM of the indicated compound. […]
MJPY1 potentiates α3GlyR through binding to the THC-binding site near S296 in the transmembrane domain (TMD). […] Data were recorded at EC2 agonist for the indicated channels and are reported as the ratio of currents in the presence (I) and absence (Io) of 10 μM compound 1 (MJPY1). […]

S296A mutation in α3GlyR = molecular target: T2, S296A mutation in α3GlyR (Homo sapiens, UniProt O75311, S329A); assay: Electrophysiology on Xenopus laevis oocytes, S296A mutant; assay type: cell-based; conditions: EC2 agonist, 10 μM compound
T2 construct: expressed in transfected cells; host or cells: Xenopus laevis oocytes
T2 sequence (O75311 34-464 S329A): T1 sequence (O75311 34-464) with S296A
Experimental: MJPY1 potentiates α3GlyR through binding to the THC-binding site near S296 in the transmembrane domain (TMD). Like α3GlyR, but unlike ELIC, the chimera ELIC-α3GlyR containing the α3GlyR TMD is potentiated by MJPY1. The S296A mutation in α3GlyR abolishes compound 1 (MJPY1)'s potentiation. Data were recorded at EC2 agonist for the indicated channels and are reported as the ratio of currents in the presence (I) and absence (Io) of 10 μM compound 1 (MJPY1). Error bars represent SEM (n≥4 oocytes).

NOR = NOR (Homo sapiens, UniProt P41146); assay: Radioligand binding assay, off-target profiling; conditions: 10 M MJPY1, mean, n = 4
[1] = system: TA100 strain Salmonella typhimurium; assay: In vitro Ames test; assay type: cell-based; conditions: S9 rat liver extract
Experimental: Toxicity was evaluated using in vitro Ames test and in vivo immune responses flow cytometry. Compound 1 (MJPY1) at each concentration was tested in three 48-well plates using the TA100 strain Salmonella typhimurium and S9 rat liver extract for base-pair substitution mutations. Error bars represent SEM. Significance (p<0.05) was evaluated compared to the control (0 μM) using one-way ANOVA with the Bonferroni post-hoc test. FIGS. 15A and 15B show flow cytometry evaluation of common inflammatory markers in the liver and spleen of mice in response to compound 1 (MJPY1) treatment. Mice received either 2 mg/kg of MJPY1 (right) or vehicle (left) ˜16 hours prior to sacrifice and tissue collection. Significant differences between the treatment and control were observed only for decreased CD11b+ in the liver of mice treated with MJPY1 (p<0.001). […] Results were analyzed by one-way ANOVA with Bonferroni post-hoc test.

mice = assay: Two-plate thermal preference test (30° C. vs 55° C.); assay type: in vivo
Experimental: Responses to the two-plate thermal preference test were assessed under naïve conditions and 1 hour after administration of 0.2 mg/kg compound 1, 0.1 mg/kg morphine, or 0.2 mg/kg compound 1+0.1 mg/kg morphine. Unrestrained mice were exposed to plates set to normal and hot temperatures (30° C. and 55° C., respectively). Temperature preference was measured by percentage time spent on the hot plate (55° C.) over the course of 4 minutes, where 50% indicates no preference between the two temperatures. […] Error bars designate the standard error of the mean (n≥5).
Unrestrained mice were exposed to plates set to normal and hot temperatures (30° C. and 55° C., respectively) for 10 minutes. […] Error bars designate the standard error of the mean (n=4).
The percent inactivity on the 55° C. plate (mean±SEM) is a measure of heat tolerance. Significance was assessed by one-way ANOVA with LSD post-hoc test.

KOR = KOR (Homo sapiens, UniProt P41145); assay: Radioligand binding assay, off-target profiling; conditions: 10 M MJPY1, mean, n = 4
KOR, sequence (P41145 whole entry): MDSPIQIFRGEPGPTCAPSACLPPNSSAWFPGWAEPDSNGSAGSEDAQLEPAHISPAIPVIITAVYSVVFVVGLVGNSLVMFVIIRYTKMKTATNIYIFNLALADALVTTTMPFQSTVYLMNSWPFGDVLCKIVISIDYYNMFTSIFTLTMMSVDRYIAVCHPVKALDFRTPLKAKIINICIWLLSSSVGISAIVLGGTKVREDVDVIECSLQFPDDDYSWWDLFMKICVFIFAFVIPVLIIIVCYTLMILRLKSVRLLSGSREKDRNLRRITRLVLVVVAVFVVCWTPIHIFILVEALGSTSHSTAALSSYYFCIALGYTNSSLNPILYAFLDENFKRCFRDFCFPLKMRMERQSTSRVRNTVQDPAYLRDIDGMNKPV

hERG, sequence (Q12809 whole entry): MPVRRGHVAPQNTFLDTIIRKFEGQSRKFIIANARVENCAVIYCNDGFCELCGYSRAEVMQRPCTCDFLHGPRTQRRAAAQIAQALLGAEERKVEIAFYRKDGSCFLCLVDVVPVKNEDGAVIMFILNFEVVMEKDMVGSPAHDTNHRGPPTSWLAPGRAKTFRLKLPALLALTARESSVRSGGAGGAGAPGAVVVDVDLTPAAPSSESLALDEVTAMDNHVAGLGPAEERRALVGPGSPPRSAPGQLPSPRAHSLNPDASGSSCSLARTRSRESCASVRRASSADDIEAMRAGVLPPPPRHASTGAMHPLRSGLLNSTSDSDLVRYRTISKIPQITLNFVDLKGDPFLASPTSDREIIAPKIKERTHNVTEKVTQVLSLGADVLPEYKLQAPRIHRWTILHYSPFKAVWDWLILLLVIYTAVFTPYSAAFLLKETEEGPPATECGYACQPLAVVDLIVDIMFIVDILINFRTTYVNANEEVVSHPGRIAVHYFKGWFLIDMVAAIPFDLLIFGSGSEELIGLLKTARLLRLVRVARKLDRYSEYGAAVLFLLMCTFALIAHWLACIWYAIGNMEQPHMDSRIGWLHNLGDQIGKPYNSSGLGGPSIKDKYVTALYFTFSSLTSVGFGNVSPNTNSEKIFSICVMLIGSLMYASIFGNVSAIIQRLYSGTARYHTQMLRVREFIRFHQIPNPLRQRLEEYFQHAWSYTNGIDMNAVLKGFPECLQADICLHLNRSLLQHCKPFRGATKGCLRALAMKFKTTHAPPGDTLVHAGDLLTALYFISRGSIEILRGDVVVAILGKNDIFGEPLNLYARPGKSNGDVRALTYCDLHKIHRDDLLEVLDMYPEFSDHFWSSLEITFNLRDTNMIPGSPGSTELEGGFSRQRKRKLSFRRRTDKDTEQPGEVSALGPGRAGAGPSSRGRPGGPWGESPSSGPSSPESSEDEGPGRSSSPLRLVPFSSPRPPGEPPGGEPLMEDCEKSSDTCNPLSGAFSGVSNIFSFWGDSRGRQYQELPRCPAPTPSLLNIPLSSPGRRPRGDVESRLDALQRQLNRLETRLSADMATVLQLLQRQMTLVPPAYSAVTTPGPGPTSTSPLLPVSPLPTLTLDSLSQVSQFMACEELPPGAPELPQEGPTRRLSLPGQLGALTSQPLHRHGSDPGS
NOR, sequence (P41146 whole entry): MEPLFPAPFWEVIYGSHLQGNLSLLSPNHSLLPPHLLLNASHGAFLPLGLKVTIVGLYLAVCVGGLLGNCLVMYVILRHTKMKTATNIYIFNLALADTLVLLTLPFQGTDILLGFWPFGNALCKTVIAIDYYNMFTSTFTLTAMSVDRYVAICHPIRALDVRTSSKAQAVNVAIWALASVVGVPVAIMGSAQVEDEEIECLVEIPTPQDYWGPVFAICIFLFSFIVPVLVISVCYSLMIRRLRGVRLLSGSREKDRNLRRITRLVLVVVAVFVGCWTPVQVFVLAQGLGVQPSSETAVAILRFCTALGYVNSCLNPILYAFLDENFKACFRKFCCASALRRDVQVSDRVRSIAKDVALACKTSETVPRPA

NC(=O)c1cccc(CNC(=O)c2ccc3c4c(cccc24)CC3)c1 [compound 1, N-[(3-carbamoylphenyl)-methyl]-1,2-dihydroacenaphthylene-5-carboxamide]
inhibition at 10 µM (hERG): -19.5% | potentiation of α3GlyR (I/Io) (human α3GlyR; EC2 agonist, 10 μM compound): potentiates | modulation of human GlyRs (I/Io) (human α3GlyR; Xenopus laevis oocytes, 2% maximal effective concentration of glycine): modulated | potentiation of α3GlyR S296A (I/Io) (S296A mutation in α3GlyR): abolishes | % Inhibition NOR (NOR): −16.8% | mutagenic activity (base-pair substitution mutations) [1]: little mutagenic activity | analgesic action compared with morphine (percent inactivity on the 55° C. plate) (mice; 0.1 mg/kg i.p., male CD1 mice, 24 hr after CFA, 1 hr after treatment, same dose): better than morphine | percentage time spent on the hot plate (55° C.) compared to naïve mice (mice; normal nociception, 1 hour after 0.2 mg/kg compound 1, 0.1 mg/kg morphine, or both, 4 minutes): no significant analgesic response | % Inhibition KOR (KOR): 5.0%
